Converted amounts (≈) assume the structure as drawn.
Tests used:
[1] = system: Providencia stuartii; experiment: Antibacterial activity against Providencia stuartii ATCC29916 assessed as inhibition of bacterial growth incubated for 24 hrs by broth microdilution method; format: functional
[2] = system: Klebsiella pneumoniae; experiment: Antibacterial activity against Klebsiella pneumoniae ATCC 11296 assessed as inhibition of bacterial growth incubated for 18 to 24 hrs by microdilution method; format: functional; conditions: time 18-24 hrs
[3] = system: Providencia stuartii; experiment: Antibacterial activity against Providencia stuartii NEA16 assessed as inhibition of bacterial growth incubated for 18 to 24 hrs in the presence of PAbN by microdilution method; format: functional; conditions: time 18-24 hrs
[4] = system: Pseudomonas aeruginosa; experiment: Antibacterial activity against Pseudomonas aeruginosa PA01 assessed as inhibition of bacterial growth incubated for 18 to 24 hrs in the presence of PAbetaN by microdilution method; format: functional; conditions: time 18-24 hrs
[5] = system: Klebsiella pneumoniae; experiment: Antibacterial activity against Klebsiella pneumoniae KP63 assessed as inhibition of bacterial growth incubated for 18 to 24 hrs in presence of PAbetaN by microdilution method; format: functional; conditions: time 18-24 hrs
[6] = system: Staphylococcus aureus; experiment: Antibacterial activity against methicillin-resistant Staphylococcus aureus 4 assessed as inhibition of bacterial growth incubated for 18 to 24 hrs in the presence of PAbetaN by microdilution method; format: functional; conditions: time 18-24 hrs
[7] = system: Klebsiella pneumoniae; experiment: Antibacterial activity against Klebsiella pneumoniae ATCC 11296 assessed as inhibition of bacterial growth incubated for 18 to 24 hrs in presence of PAbetaN by microdilution method; format: functional; conditions: time 18-24 hrs
[8] = system: Providencia stuartii; experiment: Antibacterial activity against Providencia stuartii PS2636 assessed as inhibition of bacterial growth incubated for 18 to 24 hrs in the presence of PAbetaN by microdilution method; format: functional; conditions: time 18-24 hrs
[9] = system: Staphylococcus aureus; experiment: Antibacterial activity against methicillin-resistant Staphylococcus aureus 6 assessed as inhibition of bacterial growth incubated for 18 to 24 hrs by microdilution method; format: functional; conditions: time 18-24 hrs
[10] = system: Escherichia coli; experiment: Antibacterial activity against Escherichia coli AG102 assessed as inhibition of bacterial growth incubated for 18 to 24 hrs in the presence of PAbetaN by microdilution method; format: functional; conditions: time 18-24 hrs
[11] = system: Pseudomonas aeruginosa; experiment: Antibacterial activity against Pseudomonas aeruginosa PA01 assessed as inhibition of bacterial growth incubated for 18 to 24 hrs by microdilution method; format: functional; conditions: time 18-24 hrs
[12] = system: Klebsiella pneumoniae; experiment: Antibacterial activity against Klebsiella pneumoniae KP63 assessed as inhibition of bacterial growth incubated for 18 to 24 hrs by microdilution method; format: functional; conditions: time 18-24 hrs
[13] = system: Providencia stuartii; experiment: Antibacterial activity against Providencia stuartii NEA16 assessed as inhibition of bacterial growth incubated for 18 to 24 hrs by microdilution method; format: functional; conditions: time 18-24 hrs
[14] = system: Nannizzia gypsea; experiment: Antimicrobial activity against Microsporum gypseum E1420 assessed as inhibition of microbial growth incubated for 5 days by broth microdilution method; format: functional; conditions: E1420, 120 h, time 5 day
[15] = system: Pseudomonas aeruginosa; experiment: Antibacterial activity against Pseudomonas aeruginosa PA124 assessed as inhibition of bacterial growth incubated for 18 to 24 hrs in the presence of PAbetaN by microdilution method; format: functional; conditions: time 18-24 hrs
[16] = system: Pseudomonas aeruginosa; experiment: Antibacterial activity against Pseudomonas aeruginosa PA124 assessed as inhibition of bacterial growth incubated for 18 to 24 hrs by microdilution method; format: functional; conditions: time 18-24 hrs
[17] = system: Meyerozyma guilliermondii; experiment: Antimicrobial activity against clinical isolate Candida guilliermondii assessed as inhibition of microbial growth incubated for 48 hrs by broth microdilution method; format: functional
[18] = system: Escherichia coli; experiment: Antibacterial activity against Escherichia coli ATCC 10536 assessed as inhibition of bacterial growth incubated for 18 to 24 hrs in the presence of PAbetaN by microdilution method; format: functional; conditions: time 18-24 hrs
[19] = system: Candida albicans; experiment: Antimicrobial activity against Candida albicans ATCC 2091 assessed as inhibition of microbial growth incubated for 48 hrs by broth microdilution method; format: functional
[20] = system: Staphylococcus aureus; experiment: Antibacterial activity against methicillin-resistant Staphylococcus aureus 4 assessed as inhibition of bacterial growth incubated for 18 to 24 hrs by microdilution method; format: functional; conditions: time 18-24 hrs
[21] = system: Providencia stuartii; experiment: Antibacterial activity against Providencia stuartii PS2636 assessed as inhibition of bacterial growth incubated for 18 to 24 hrs by microdilution method; format: functional; conditions: time 18-24 hrs
[22] = system: Enterococcus faecalis; experiment: Antibacterial activity against Enterococcus faecalis ATCC10541 assessed as inhibition of bacterial growth incubated for 24 hrs by broth microdilution method; format: functional
[23] = system: Staphylococcus aureus; experiment: Antibacterial activity against methicillin-resistant Staphylococcus aureus 6 assessed as inhibition of bacterial growth incubated for 18 to 24 hrs in the presence of PAbetaN by microdilution method; format: functional; conditions: time 18-24 hrs
[24] = system: Escherichia coli; experiment: Antibacterial activity against Escherichia coli AG102 assessed as inhibition of bacterial growth incubated for 18 to 24 hrs by microdilution method; format: functional; conditions: time 18-24 hrs
[25] = system: CCRF-CEM; experiment: Cytotoxicity against drug sensitive human CCRF-CEM cells assessed as inhibition of cell growth at 10 uM incubated for 72 hrs by resazurin dye based assay relative to control; format: functional
[26] = system: Escherichia coli; experiment: Antibacterial activity against Escherichia coli ATCC 10536 assessed as inhibition of bacterial growth incubated for 18 to 24 hrs by microdilution method; format: functional; conditions: time 18-24 hrs
[27] = system: Staphylococcus aureus; experiment: Antibacterial activity against Staphylococcus aureus […] assessed as inhibition of bacterial growth incubated for 24 hrs by broth microdilution method; format: functional
[28] = system: ADR5000 cell line; experiment: Cytotoxicity against multidrug resistant human CEM/ADR5000 cells overexpressing p-glycoprotein assessed as inhibition of cell growth incubated for 72 hrs by resazurin dye based assay; format: functional; conditions: ADR5000, 72 h
[29] = system: CCRF-CEM; experiment: Cytotoxicity against drug sensitive human CCRF-CEM cells assessed as inhibition of cell growth incubated for 72 hrs by resazurin dye based assay; format: functional
[30] = system: RAW264.7; experiment: Antiinflammatory activity in mouse RAW264.7 cells assessed as inhibition of LPS-induced NO production; format: functional, cell-based
[31] = system: MCF7; experiment: Antiproliferative activity against human MCF7 cells assessed as inhibition of cell growth by MTT assay; format: functional, cell-based
[32] = system: A549; experiment: Antiproliferative activity against human A549 cells assessed as inhibition of cell growth by MTT assay; format: functional, cell-based
[33] = system: SW480; experiment: Antiproliferative activity against human SW480 cells assessed as inhibition of cell growth by MTT assay; format: functional, cell-based
[34] = system: SMMC-7721; experiment: Antiproliferative activity against human SMMC-7721 cells assessed as inhibition of cell growth by MTT assay; format: functional, cell-based
[35] = system: HL-60; experiment: Antiproliferative activity against human HL-60 cells assessed as inhibition of cell growth by MTT assay; format: functional, cell-based
[36] = Resistance index, ratio of IC50 for multidrug resistant human CEM/ADR5000 cells overexpressing p-glycoprotein to IC50 for drug sensitive human CCRF-CEM cells; format: functional

SMILES	MIC [2]	MIC [3]	MIC [4]	MIC [5]	MIC [6]	MIC [7]	MIC [8]	MIC [9]	MIC [10]	MIC [11]	MIC [12]	MIC [13]	MIC [15]	MIC [16]	MIC [18]	MIC [20]	MIC [21]	MIC [23]	MIC [24]	MIC [26]	other results
COc1c(CC=C(C)C)c(O)cc2occ(-c3ccc4c(c3)OCO4)c(=O)c12																					MIC [1]: 25 µg/mL (≈ 65.7 µM)
COc1cc2occ(-c3ccc(O)cc3)c(=O)c2c(OC)c1CC=C(C)C	130 µg/mL (≈ 355 µM)	1 µg/mL	130 µg/mL	1 µg/mL	32 µg/mL	2 µg/mL	4 µg/mL	32 µg/mL (≈ 87.3 µM)	4 µg/mL	130 µg/mL (≈ 355 µM)	16 µg/mL (≈ 43.7 µM)	8 µg/mL (≈ 21.8 µM)	4 µg/mL	32 µg/mL (≈ 87.3 µM)	2 µg/mL	64 µg/mL (≈ 175 µM)	130 µg/mL (≈ 355 µM)	32 µg/mL	16 µg/mL (≈ 43.7 µM)	130 µg/mL (≈ 355 µM)	MIC [14]: 12.5 µg/mL; MIC [17]: 12.5 µg/mL; MIC [19]: 12.5 µg/mL; MIC [22]: ≥ 100 µg/mL; inhibition at 10 µM [25]: < 50%; MIC [1]: ≥ 100 µg/mL; MIC [27]: ≥ 100 µg/mL
COc1cc2occ(-c3ccc4[nH]ccc4c3)c(=O)c2c(OC)c1CC=C(C)C	130 µg/mL (≈ 334 µM)	8 µg/mL	8 µg/mL	1 µg/mL	4 µg/mL	4 µg/mL	4 µg/mL	32 µg/mL (≈ 82.2 µM)	64 µg/mL	130 µg/mL (≈ 334 µM)	> 130 µg/mL	130 µg/mL (≈ 334 µM)	2 µg/mL	> 130 µg/mL	130 µg/mL	> 130 µg/mL	64 µg/mL (≈ 164 µM)	1 µg/mL	130 µg/mL (≈ 334 µM)	130 µg/mL (≈ 334 µM)	inhibition at 10 µM [25]: < 50%
COc1cc2occ(-c3ccc(C=O)cc3)c(=O)c2c(OC)c1CC=C(C)C	> 130 µg/mL	2 µg/mL	16 µg/mL	2 µg/mL	8 µg/mL	8 µg/mL	16 µg/mL	130 µg/mL (≈ 344 µM)	8 µg/mL	64 µg/mL (≈ 169 µM)	130 µg/mL (≈ 344 µM)	64 µg/mL (≈ 169 µM)	8 µg/mL	130 µg/mL (≈ 344 µM)	8 µg/mL	130 µg/mL (≈ 344 µM)	130 µg/mL (≈ 344 µM)	64 µg/mL	130 µg/mL (≈ 344 µM)	32 µg/mL (≈ 84.6 µM)	IC50 [28]: 20 µM; IC50 [29]: 20 µM
COc1cc2occ(-c3ccc(C#N)cc3)c(=O)c2c(OC)c1CC=C(C)C	130 µg/mL (≈ 346 µM)	1 µg/mL	32 µg/mL	1 µg/mL	4 µg/mL	4 µg/mL	8 µg/mL	130 µg/mL (≈ 346 µM)	130 µg/mL	130 µg/mL (≈ 346 µM)	> 130 µg/mL	16 µg/mL (≈ 42.6 µM)	32 µg/mL	> 130 µg/mL	2 µg/mL	64 µg/mL (≈ 170 µM)	130 µg/mL (≈ 346 µM)	16 µg/mL	130 µg/mL (≈ 346 µM)	32 µg/mL (≈ 85.2 µM)	IC50 [28]: 20 µM; IC50 [29]: 20 µM
COc1ccc(-c2coc3cc(OC)c(CC=C(C)C)c(OC)c3c2=O)cc1	130 µg/mL (≈ 342 µM)	4 µg/mL	64 µg/mL	1 µg/mL	8 µg/mL	2 µg/mL	4 µg/mL	32 µg/mL (≈ 84.1 µM)	2 µg/mL	> 130 µg/mL	> 130 µg/mL	130 µg/mL (≈ 342 µM)	8 µg/mL	64 µg/mL (≈ 168 µM)	2 µg/mL	64 µg/mL (≈ 168 µM)	130 µg/mL (≈ 342 µM)	2 µg/mL	32 µg/mL (≈ 84.1 µM)	32 µg/mL (≈ 84.1 µM)	IC50 [30]: 2.06 µM; IC50 [31]: 0.63 µM; IC50 [32]: 0.63 µM; IC50 [33]: 0.63 µM; IC50 [34]: 0.63 µM; inhibition at 10 µM [25]: < 50%; IC50 [35]: 0.63 µM
COc1cc2occ(-c3ccc4c(c3)OCO4)c(=O)c2c(OC)c1CC=C(C)C	130 µg/mL (≈ 330 µM)	8 µg/mL	16 µg/mL	1 µg/mL	32 µg/mL	1 µg/mL	32 µg/mL	32 µg/mL (≈ 81.1 µM)	32 µg/mL	64 µg/mL (≈ 162 µM)	16 µg/mL (≈ 40.6 µM)	130 µg/mL (≈ 330 µM)	4 µg/mL	130 µg/mL (≈ 330 µM)	64 µg/mL	130 µg/mL (≈ 330 µM)	130 µg/mL (≈ 330 µM)	2 µg/mL	130 µg/mL (≈ 330 µM)	130 µg/mL (≈ 330 µM)	inhibition at 10 µM [25]: < 50%
O=C(O)c1cn(C2CC2)c2cc(N3CCNCC3)c(F)cc2c1=O [CIPROFLOXACIN]	1 µg/mL (≈ 3.02 µM)	0.25 µg/mL			1 µg/mL		0.5 µg/mL	4 µg/mL (≈ 12.1 µM)				2 µg/mL (≈ 6.04 µM)	1 µg/mL	4 µg/mL (≈ 12.1 µM)		8 µg/mL (≈ 24.1 µM)	4 µg/mL (≈ 12.1 µM)	1 µg/mL			
CC(=O)O[C@H]1C(=O)[C@@]2(C)[C@H]([C@H](OC(=O)c3ccccc3)[C@]3(O)C[C@H](OC(=O)[C@H](O)[C@@H](NC(=O)c4ccccc4)c4ccccc4)C(C)=C1C3(C)C)[C@]1(OC(C)=O)CO[C@@H]1C[C@@H]2O [PACLITAXEL]																					Ratio IC50 [36]: 390

From ChEMBL document CHEMBL5321245, “Synthesis and Bioactivity of Isoflavones from Ficus carica and Some Non-Natural Analogues” (J Nat Prod, 2023)
